Results as given in patent US20250161238A1, “NMDAR Antagonists Prevent Ageing and Aging-Associated Conditions and Diseases Through Increasing 20S Proteasome Activity” (priority 2022, published 2025).

Assays:
Ub-YFP = Ub-YFP degredation in Hep3B cells; assay type: cell-based, human
Procedure: This finding was supported by the following experiments; First, a model was developed to find inhibitor or inhibitors for the ubiquitin dependent degredation in the Hep3B cell line. For this purpose Hep3B cell expressing Ub-YFP genome were prepared. Ub-YFP is a system which was used to detect the ubiquitin dependent proteasome activity (26S). It is also known that Ub-YFP is not affected by the ubiquitin-independent protesome system. In further experiments, we tested molecules which are involved in different parts of the ubiquitination processes including PYR41 (Ubiquitin-activating enzyme (E1) inhibitor), NCC697923 (UBE2N E2 ubiquitin-conjugating enzyme inhibitor), SMER3 (ubiquitin ligase E3 inhibitor), SZL-P1-411 (Skp2 E3 ligase inhibitor), SKPIN C1 (Skp2 E3 ligase inhibitor), P005091 (USP7 inhibitor), Vialin A (USP4 and USP5 inhibitor), Spautin A (USP10 and USP13 inhibitor), ML 323 (USP1-UAF1 inhibitor), IU1 (USP14 inhibitor), and Mg132 (protesome inhibitor) for the inhibition of Ub-YFP degredation. […] MG132 was used as the inhibitor of the protesome activity (FIG. 12A). In the next experiment YFP protein amount was investigated in the presence of ketamin, Pyr41, and ketamin and Pyr41 together by western blot in Hep3B cell.
The Ub-R-YFP open-reading frame was obtained from Ub-R-YFP was a gift from Nico Dantuma (Addgene plasmid #11948). Ub-R-YFP sequence was obtained from the original vector by cutting the plasmid with NheI and NotI enzymes (Thermo Scientific), blunt ended and was cloned into pBSK-clo2D which is cut by EcoRV restriction enzyme (SibEnzyme, E059). Ub-R-YFP was obtained from the pBSK-clo2D vector by cutting with BamHI. pLV-EF1a-IRES-Puro (85132-Addgene) vector was cut by BamHI restriction enzyme and dephospharylated and ligated with Ub-R-YFP. After the orientation construct was determined, pLV-EF1a-IRES-Puro-Ub-R-YFP was reproduced in large volumes using DH5a E. Coli.
Hek293T cells were transfected with the pLV-EF1a-IRES-Puro-Ub-R-YFP and helper vectors psPAX2 and pMD2.G using Calcium Phosphate Mammalian Transfection Kit (631312-Takara bio). After 48 h supernatants containing Ub-R-YFP lentivirus were collected and target cells were infected under the presence of […] polybrene. After 24 hours, the media of the cells were replaced with media containing […] puromycin for 6 days. Then living cells were combined in a pool. Infected clones were maintained in the presence of 250 ng/ml puromycin.

lipid accumulation = test: Nile red staining of lipid in mouse tissues; assay type: in vivo; conditions: mice at 22 months
From the text: In the next study, the effects of NMDAR blocker on lipid accumulation in liver, brain, muscle, lung, skin, pancreas, and kidney of mice with the presence of Memantine and control mice groups at 22 months were stained with Nile red and investigated.
Whole frozen tissues were sectioned with a microtome and fixed in 4% paraformaldehyde, Tissues were washed in PBS and the individual staining methods used in accordance with the manufacturer's recommendations. Total pixels from fluorescence in the images were quantified using Adobe Photoshop software CS2 (Adobe Systems), and normalized to a nuclear stain.

hippocampal slices = conditions: 6-10 uM; cited from earlier work
mice = test: Color change and condition of fur of aged mice; assay type: in vivo; conditions: 22 months of age; 3 mg/Kg/per day with drinking water
From the text: Ten mice, one year old, were supplied for the study. The mice were divided into two groups and one added memenatine to their drinking water, while the other group was designated as the control group. Mice were followed until they were 2 years old. Clinical frailty tests were investigated and compared in the two groups of mice at 22 months. The simplest and most easly determined findings of clinical signs of deterioration in aging mice are the evaluation of changes in mouse skin.
The experimental protocols were approved by the Ethics Committee of Ankara University, Faculty of Medicine, Medical Sciences Experimental Research and Application Center (Date: Dec. 11, 2019 and Decision number: 2019-22-189). Adult (12-mounts-old) C57BL/6 mice (5 for each group) were used. The mice were housed at the Experimental Animal Research Laboratory of Ankara University Faculty of Medicine. Food and water were given without restriction. The ambient temperature was kept at 21±2° C., and locomotor activity tests were performed at this temperature. The animals were housed in a room with a 12-hour light/dark cycle. The procedures in the study were performed in accordance with the Ankara University Animal Care Committee according to international guidelines. […] Tests related to locomotor activities of the mice were recorded and available.

| SMILES | Ub-YFP degredation (Ub-YFP; Hep3B expressing Ub-YFP) | YFP protein amount (Ub-YFP; Hep3B, western blot) | amount of lipid in liver, brain, muscle, lung, and skin (lipid accumulation) | amount of lipid in pancreas and kidney (lipid accumulation) | LTP in hippocampal slices (hippocampal slices) | color change and condition of mouse fur (mice) |
| --- | --- | --- | --- | --- | --- | --- |
| CNC1(c2ccccc2Cl)CCCCC1=O (stereo not drawn) [ketamin, 2-(2-chlorophenyl)-2-(methylamino)-cyclohexanone] | no effect | did not decrease |  |  |  |  |
| CC12CC3CC(C)(C1)CC(N)(C3)C2 [memantine, 3,5-dimethyladamantan-1-amine] |  |  | less than that of the control group | No clear difference | do not attenuate | very different in favor of those who received memantine |
